From publication PMC4279382, “Antitumor activity of S116836, a novel tyrosine kinase inhibitor, against imatinib-resistant FIP1L1-PDGFRα-expressing cells” (Oncotarget, 2014) come the findings set out here.

What all share (assay): KINOMEscan competition binding, single concentration
Settings in all cases: read-out: % Ctrl @ 100nM

The target in experiment [1] is T1, ABL1-nonphosphorylated (Homo sapiens, UniProt P00519).
T1 construct: KINOMEscan (Ambit) panel kinase, nonphosphorylated form
The text has this:
(§1) KINOMEscan competition binding, single concentration on ABL1-nonphosphorylated

Experiment [2] has as its target T2, ABL1-nonphosphorylated (Homo sapiens, UniProt P00519, T315I).
T2 construct: KINOMEscan (Ambit) panel kinase, nonphosphorylated form
From the text: as §1

Experiment [3] deals with T3, BLK (Homo sapiens, UniProt P51451).
T3 construct: KINOMEscan (Ambit) panel kinase
T3 sequence (P51451 2-505): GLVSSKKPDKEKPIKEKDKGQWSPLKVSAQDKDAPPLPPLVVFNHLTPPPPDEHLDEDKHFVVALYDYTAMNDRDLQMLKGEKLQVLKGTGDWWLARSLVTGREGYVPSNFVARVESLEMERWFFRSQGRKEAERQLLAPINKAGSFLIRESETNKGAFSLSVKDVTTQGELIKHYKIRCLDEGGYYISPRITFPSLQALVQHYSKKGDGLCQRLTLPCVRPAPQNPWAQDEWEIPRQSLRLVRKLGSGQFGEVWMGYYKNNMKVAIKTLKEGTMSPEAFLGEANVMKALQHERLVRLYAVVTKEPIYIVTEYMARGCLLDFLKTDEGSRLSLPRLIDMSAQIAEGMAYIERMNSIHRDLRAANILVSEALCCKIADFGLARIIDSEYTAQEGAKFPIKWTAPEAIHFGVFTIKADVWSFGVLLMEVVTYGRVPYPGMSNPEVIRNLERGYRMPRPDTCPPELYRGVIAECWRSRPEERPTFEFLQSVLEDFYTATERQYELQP
The text has this:
KINOMEscan competition binding, single concentration on BLK

For experiment [4], the target named is T4, LYN (Homo sapiens, UniProt P07948).
T4 construct: KINOMEscan (Ambit) panel kinase
The text has this:
KINOMEscan competition binding, single concentration on LYN

The target in experiment [5] is T5, FLT3 (Homo sapiens, UniProt P36888).
T5 construct: KINOMEscan (Ambit) panel kinase
T5 sequence (P36888 27-993): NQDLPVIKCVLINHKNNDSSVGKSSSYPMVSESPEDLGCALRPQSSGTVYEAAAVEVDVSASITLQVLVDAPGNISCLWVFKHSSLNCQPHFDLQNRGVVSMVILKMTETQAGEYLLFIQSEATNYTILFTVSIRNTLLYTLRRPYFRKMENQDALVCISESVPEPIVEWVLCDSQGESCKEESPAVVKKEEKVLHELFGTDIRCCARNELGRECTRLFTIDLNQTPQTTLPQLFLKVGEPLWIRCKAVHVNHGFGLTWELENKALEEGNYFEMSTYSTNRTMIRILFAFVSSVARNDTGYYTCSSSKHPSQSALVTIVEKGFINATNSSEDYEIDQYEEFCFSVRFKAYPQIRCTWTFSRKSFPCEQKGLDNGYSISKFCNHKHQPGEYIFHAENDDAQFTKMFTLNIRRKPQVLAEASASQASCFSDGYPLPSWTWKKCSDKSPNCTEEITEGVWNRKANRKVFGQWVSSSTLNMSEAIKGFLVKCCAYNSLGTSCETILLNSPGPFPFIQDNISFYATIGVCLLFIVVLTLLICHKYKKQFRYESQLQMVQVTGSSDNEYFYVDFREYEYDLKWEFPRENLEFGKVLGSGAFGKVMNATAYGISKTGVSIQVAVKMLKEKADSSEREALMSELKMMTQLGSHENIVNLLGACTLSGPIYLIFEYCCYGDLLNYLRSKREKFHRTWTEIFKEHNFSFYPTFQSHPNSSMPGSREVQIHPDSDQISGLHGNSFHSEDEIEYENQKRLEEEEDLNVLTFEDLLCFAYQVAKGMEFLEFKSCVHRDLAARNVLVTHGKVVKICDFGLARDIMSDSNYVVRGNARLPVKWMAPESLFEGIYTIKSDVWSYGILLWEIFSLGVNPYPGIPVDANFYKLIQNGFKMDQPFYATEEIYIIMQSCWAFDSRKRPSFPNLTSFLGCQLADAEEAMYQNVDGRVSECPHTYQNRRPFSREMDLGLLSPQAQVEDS
The text has this: KINOMEscan competition binding, single concentration on FLT3

Experiment [6] deals with T6, KIT (Homo sapiens, UniProt P10721).
T6 construct: KINOMEscan (Ambit) panel kinase
The text has this:
KINOMEscan competition binding, single concentration on KIT

Experiment [7] deals with T7, PLK1 (Homo sapiens, UniProt P53350).
T7 construct: KINOMEscan (Ambit) panel kinase
T7 sequence (P53350 2-603): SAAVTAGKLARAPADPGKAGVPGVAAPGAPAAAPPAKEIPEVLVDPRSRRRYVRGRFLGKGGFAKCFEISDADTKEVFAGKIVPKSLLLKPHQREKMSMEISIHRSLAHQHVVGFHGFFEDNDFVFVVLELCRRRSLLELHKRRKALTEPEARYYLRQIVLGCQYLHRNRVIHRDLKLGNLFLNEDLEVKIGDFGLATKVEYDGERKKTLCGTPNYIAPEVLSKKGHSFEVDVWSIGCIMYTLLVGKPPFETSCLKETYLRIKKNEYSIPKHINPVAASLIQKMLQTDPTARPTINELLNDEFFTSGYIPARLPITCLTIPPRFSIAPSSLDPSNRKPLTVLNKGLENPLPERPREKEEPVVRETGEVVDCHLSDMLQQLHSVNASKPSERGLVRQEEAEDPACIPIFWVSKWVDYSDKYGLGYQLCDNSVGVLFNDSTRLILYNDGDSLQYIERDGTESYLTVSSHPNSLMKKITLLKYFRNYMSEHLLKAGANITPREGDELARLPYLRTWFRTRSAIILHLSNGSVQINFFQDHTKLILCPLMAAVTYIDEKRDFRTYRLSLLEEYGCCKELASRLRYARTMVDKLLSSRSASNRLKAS
The text has this:
KINOMEscan competition binding, single concentration on PLK1

For experiment [8], the target named is T8, PDGFRβ (Homo sapiens, UniProt P09619).
T8 construct: gene PDGFRB; KINOMEscan (Ambit) panel kinase
T8 sequence (P09619 33-1106): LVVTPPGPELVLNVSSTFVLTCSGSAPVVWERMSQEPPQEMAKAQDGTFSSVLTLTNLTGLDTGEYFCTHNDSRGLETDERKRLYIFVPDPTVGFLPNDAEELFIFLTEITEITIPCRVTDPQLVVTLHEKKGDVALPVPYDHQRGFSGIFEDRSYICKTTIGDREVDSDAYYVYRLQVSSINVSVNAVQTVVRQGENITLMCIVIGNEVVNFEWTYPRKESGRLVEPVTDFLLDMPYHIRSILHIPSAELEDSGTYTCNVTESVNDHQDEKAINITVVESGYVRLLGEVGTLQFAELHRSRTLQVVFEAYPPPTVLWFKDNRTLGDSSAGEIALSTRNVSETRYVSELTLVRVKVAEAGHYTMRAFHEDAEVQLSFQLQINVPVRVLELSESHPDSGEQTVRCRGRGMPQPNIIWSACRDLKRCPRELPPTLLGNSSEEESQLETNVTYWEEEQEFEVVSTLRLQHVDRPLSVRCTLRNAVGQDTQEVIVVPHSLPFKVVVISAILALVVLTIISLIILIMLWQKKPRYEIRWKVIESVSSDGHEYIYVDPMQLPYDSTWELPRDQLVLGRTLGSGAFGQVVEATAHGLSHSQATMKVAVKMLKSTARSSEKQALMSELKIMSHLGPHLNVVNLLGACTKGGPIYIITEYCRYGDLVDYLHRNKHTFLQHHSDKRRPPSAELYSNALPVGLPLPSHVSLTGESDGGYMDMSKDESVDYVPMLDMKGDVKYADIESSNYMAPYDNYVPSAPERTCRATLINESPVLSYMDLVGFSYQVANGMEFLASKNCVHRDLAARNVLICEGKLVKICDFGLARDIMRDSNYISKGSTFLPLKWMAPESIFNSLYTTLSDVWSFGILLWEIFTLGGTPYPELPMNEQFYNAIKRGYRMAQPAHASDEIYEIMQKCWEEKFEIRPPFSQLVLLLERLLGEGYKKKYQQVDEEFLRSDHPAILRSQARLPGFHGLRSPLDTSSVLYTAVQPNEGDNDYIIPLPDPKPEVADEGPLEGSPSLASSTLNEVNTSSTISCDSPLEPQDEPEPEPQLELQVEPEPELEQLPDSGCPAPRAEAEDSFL
The text has this: KINOMEscan competition binding, single concentration on PDGFRβ

The target in experiment [9] is T9, SRC (Homo sapiens, UniProt P12931).
T9 construct: KINOMEscan (Ambit) panel kinase
T9 sequence (P12931 2-536): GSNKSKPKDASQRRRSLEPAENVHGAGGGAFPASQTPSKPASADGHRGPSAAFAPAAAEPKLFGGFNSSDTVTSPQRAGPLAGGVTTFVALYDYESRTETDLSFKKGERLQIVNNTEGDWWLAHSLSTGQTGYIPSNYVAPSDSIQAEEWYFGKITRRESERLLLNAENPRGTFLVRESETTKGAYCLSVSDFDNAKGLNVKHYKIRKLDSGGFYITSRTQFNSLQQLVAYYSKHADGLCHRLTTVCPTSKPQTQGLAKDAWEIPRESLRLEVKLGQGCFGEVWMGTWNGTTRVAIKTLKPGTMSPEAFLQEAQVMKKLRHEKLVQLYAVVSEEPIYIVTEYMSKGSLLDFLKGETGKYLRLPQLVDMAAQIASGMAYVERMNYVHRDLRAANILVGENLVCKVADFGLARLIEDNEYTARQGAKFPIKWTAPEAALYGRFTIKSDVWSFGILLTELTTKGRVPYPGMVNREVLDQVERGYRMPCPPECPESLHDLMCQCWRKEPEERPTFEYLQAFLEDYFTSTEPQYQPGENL
The text has this: KINOMEscan competition binding, single concentration on SRC

Experiment [10] concerns the target T10, CDK2 (Homo sapiens, UniProt P24941).
T10 construct: KINOMEscan (Ambit) panel kinase; no cyclin named
The text has this: KINOMEscan competition binding, single concentration on CDK2

Experiment [11] deals with T11, HCK (Homo sapiens, UniProt P08631).
T11 construct: KINOMEscan (Ambit) panel kinase
The text has this:
KINOMEscan competition binding, single concentration on HCK

The target of experiment [12] is T12, PDGFRα (Homo sapiens, UniProt P16234).
T12 construct: gene PDGFRA; KINOMEscan (Ambit) panel kinase
T12 sequence (P16234 24-1089): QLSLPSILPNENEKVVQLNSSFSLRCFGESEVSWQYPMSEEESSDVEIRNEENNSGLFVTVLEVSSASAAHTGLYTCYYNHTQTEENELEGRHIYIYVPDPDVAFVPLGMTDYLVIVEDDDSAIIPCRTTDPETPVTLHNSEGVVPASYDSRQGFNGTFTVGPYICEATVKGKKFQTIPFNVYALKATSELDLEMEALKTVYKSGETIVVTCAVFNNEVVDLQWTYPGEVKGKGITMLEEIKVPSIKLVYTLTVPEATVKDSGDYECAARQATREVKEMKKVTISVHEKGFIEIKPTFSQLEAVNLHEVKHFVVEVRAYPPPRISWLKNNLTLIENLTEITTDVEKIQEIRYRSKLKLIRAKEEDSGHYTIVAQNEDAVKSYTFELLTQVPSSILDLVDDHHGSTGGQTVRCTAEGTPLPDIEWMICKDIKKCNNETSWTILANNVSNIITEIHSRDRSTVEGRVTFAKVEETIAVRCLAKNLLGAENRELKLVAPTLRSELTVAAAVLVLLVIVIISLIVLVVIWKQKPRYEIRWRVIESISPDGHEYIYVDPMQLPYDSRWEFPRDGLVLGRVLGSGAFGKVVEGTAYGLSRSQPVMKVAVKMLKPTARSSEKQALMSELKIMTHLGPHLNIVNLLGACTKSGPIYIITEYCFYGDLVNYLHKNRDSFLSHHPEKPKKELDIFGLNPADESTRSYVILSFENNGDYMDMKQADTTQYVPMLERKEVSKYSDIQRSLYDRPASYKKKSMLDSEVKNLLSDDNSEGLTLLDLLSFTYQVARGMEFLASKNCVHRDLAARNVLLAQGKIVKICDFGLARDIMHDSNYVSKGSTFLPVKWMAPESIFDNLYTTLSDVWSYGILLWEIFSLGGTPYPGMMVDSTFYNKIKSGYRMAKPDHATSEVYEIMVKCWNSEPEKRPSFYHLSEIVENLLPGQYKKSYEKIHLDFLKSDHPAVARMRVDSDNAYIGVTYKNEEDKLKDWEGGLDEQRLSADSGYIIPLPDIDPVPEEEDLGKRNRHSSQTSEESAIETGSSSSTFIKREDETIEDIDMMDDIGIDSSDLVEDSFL
The text has this: KINOMEscan competition binding, single concentration on PDGFRα

The target in experiment [13] is T13, TIE2 (Homo sapiens, UniProt Q02763).
T13 construct: gene TEK; KINOMEscan (Ambit) panel kinase
T13 sequence (Q02763 23-1124): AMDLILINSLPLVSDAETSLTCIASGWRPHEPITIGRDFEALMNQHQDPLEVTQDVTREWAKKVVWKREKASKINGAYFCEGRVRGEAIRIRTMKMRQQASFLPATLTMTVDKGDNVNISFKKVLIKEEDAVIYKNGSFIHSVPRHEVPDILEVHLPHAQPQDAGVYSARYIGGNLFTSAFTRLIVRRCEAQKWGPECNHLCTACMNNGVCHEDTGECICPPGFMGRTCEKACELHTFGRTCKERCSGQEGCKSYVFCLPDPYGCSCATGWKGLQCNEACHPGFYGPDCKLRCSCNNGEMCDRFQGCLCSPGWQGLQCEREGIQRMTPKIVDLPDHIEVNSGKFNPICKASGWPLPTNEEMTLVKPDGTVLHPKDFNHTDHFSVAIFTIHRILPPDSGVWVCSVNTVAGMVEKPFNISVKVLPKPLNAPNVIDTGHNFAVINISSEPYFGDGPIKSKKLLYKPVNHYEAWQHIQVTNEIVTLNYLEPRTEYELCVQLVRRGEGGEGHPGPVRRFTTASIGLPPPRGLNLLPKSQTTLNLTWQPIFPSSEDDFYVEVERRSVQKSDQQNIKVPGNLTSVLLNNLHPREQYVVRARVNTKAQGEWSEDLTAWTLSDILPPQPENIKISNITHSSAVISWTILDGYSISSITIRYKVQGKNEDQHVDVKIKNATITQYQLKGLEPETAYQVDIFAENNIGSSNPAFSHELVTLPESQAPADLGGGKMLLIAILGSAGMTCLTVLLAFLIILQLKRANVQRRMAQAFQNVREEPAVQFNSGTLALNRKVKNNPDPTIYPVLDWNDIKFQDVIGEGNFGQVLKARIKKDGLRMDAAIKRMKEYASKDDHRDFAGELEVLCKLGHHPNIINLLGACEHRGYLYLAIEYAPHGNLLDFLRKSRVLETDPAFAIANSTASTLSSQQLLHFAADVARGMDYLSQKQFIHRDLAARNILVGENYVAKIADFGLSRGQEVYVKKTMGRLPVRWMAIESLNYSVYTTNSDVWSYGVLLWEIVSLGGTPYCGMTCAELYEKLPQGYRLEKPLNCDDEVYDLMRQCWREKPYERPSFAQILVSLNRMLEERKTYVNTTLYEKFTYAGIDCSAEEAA
The text has this: KINOMEscan competition binding, single concentration on TIE2

Experiment [14] deals with T14, LCK (Homo sapiens, UniProt P06239).
T14 construct: KINOMEscan (Ambit) panel kinase
The text has this: KINOMEscan competition binding, single concentration on LCK

On to `Cc1ccc(C(=O)Nc2cc(-n3ccnc3)cc(C(F)(F)F)c2)cc1C#Cc1cnc(NC2CC2)nc1` [S116836], for which the remaining binding at 0.1 µM turned out to be 18% in experiment [1]; 20% in experiment [2]; 10% in experiment [3]; 16% in experiment [4]; 1.8% in experiment [5]; 6.8% in experiment [6]. Besides, the remaining binding at 0.1 µM was 100% in experiment [7]; 3.3% in [8]; 33% in [9]; 99% in [10]; 6.2% in [11]; 26% in [12]. The remaining binding at 0.1 µM in experiment [13] was determined as 0.85%; in experiment [14], 3.4%.
